Results on 17 compounds are retold here after patent EP1611112B1, “ISOXAZOLE COMPOUNDS AS INHIBITORS OF HEAT SHOCK PROTEINS” (Vernalis (Cambridge) Limited, priority 2003, dated 2004).

As usually defined, the IC50 is the concentration that gives 50% inhibition. Lower therefore signals greater potency.

Test system in one experiment: not listed separately
Kind of experiment: Sulforhodamine B (SRB) growth inhibition / growth arrest assay. It counts as cell-based. The following applies: cell line not named. On the procedure: A growth inhibition assay was also employed for the evaluation of candidate HSP90 inhibitors: • Assessment of cytotoxicity by Sulforhodamine B (SRB) assay: calculation of 50% inhibitory concentration (IC50).
• 1) Determine cell number by haemocytometer. • 2) Using an 8 channel multipipettor, add 160µl of the cell suspension (3600 cells/well or 2 x 10^4 cells/ml) to each well of a 96-well microtitre plate. • 3) Incubate overnight at 37°C in a CO2 incubator. […]
• 8) Tip off medium into sink and immerse plate slowly into 10% ice cold trichloroacetic acid (TCA). […] Leave for 15 mins. • 12)Wash off unbound SRB stain with four washes of 1% acetic acid. • 13)Dry plates in incubator. • 14)Solubilise SRB using 100µl of 10mM Tris base and put plates on plate shaker for 5 mins. • 15)Determine absorbance at 540nm using a plate reader. Calculate mean absorbance for quadruplicate wells and express as a percentage of value for control, untreated wells. • 16)Plot % absorbance values versus log drug concentration and determine the IC50. […]
In turn, `COc1ccc(-c2c(C)noc2-c2cc(Br)c(O)cc2O)cc1` [Example 2, 4-Bromo-6-[4-(4-methoxy-phenyl)-3-methyl-isoxazol-5-yl]-benzene-1,3-diol] showed an IC50 of less than 50 µM.

Another experiment deals with T1, human full-length HSP90 (Homo sapiens, UniProt P08238).
T1 construct: E. coli expressed human full-length HSP90 protein; made in house; host or cells: E. coli
T1 sequence (P08238 whole entry): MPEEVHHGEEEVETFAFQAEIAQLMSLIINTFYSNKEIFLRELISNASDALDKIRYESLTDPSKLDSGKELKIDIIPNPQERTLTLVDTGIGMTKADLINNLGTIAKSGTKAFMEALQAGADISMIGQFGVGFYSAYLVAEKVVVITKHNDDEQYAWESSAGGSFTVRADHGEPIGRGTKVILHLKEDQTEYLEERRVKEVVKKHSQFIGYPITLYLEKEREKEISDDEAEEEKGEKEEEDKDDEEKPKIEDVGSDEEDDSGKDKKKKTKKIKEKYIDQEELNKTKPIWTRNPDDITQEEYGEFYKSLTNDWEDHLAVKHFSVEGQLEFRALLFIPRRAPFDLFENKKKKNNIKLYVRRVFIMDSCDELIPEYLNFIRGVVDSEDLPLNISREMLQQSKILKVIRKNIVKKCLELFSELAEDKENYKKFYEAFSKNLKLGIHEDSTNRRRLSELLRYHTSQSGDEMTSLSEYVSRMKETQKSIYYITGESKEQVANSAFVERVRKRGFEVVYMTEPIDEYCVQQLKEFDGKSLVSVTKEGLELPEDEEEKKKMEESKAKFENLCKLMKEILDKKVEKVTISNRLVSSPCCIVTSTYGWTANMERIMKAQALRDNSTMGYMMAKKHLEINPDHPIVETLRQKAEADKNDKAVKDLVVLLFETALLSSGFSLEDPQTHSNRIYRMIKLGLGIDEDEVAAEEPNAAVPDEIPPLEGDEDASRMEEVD
The experiment can be described thus: Fluorescence Polarisation Assay (displacement of fluorescein-labelled probe RBT0045864-FAM). It counts as binding. To be noted: Fluorescence Polarisation Assay, activity range. From the text: A Fluorescence Polarization_assay was also employed for the evaluation of some of the compounds of the Examples:
Fluorescence polarization {also known as fluorescence anisotropy} measures the rotation of a fluorescing species in solution, where the larger molecule the more polarized the fluorescence emission.
When the fluorophore is excited with polarized light, the emitted light is also polarized. The molecular size is proportional to the polarization of the fluorescence emission.
Test compound is added to the assay plate, left to equilibrate and the anisotropy measured again. Any change in anisotropy is due to competitive binding of compound to HSP90, thereby releasing probe.
Stored at room temperature. • 3) BSA (bovine serum albumen) 10 mg/ml (New England Biolabs # B9001S) • 4) 20 mM probe in 100 % DMSO stock concentration. Stored in the dark at RT. Working concentration is 200 nM diluted in AR water and stored at 4 °C.
1) Add 100µl 1x buffer to wells 11A and 12A (=FP BLNK) 2) Prepare assay mix - all reagents are kept on ice with a lid on the bucket as the probe is light-sensitive.
This gives 2.5 mM {50x} stock cpd - assuming cpds 20 mM. • 4) Repeat for wells A2 to A10. Control in columns 11 and 12. • 5) Transfer 5 µl from row A to row B- not column 12. Mix well. • 6) Transfer 5 µl from row B to row C. […] Add 2 µl of 100mM standard cpd to wells B12 - H12 {is positive control } • 13)The Z' factor is calculated from zero controls and positive wells.
(In fluorescence polarisation assays a small probe gives low polarisation when free and higher when bound to something large.)
`COc1ccc(-c2c(C)noc2-c2cc(Br)c(O)cc2O)cc1` [Example 2, 4-Bromo-6-[4-(4-methoxy-phenyl)-3-methyl-isoxazol-5-yl]-benzene-1,3-diol] registered an IC50 of less than 10 µM.

The target in the next experiment is T2, yeast HSP90 (Saccharomyces cerevisiae, UniProt P02829).
T2 construct: made in house; host or cells: E. coli
T2 sequence (P02829 whole entry): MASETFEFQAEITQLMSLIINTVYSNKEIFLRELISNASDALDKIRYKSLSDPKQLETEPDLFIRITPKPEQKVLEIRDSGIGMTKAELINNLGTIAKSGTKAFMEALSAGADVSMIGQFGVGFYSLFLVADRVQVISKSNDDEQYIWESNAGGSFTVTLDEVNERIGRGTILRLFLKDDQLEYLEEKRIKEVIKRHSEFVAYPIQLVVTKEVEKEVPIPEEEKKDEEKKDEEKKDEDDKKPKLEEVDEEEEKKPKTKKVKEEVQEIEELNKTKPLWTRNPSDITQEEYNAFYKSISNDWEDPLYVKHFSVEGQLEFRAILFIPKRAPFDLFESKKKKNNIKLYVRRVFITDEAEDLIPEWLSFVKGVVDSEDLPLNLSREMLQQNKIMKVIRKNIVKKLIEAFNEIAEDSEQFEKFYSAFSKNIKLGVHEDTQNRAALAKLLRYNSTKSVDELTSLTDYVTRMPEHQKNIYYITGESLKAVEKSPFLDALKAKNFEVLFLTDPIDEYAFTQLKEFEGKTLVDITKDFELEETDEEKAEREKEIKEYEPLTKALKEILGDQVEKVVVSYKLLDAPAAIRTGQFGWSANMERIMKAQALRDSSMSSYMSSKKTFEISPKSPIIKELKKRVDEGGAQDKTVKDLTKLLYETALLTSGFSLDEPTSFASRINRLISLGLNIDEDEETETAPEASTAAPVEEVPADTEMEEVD
Kind of experiment: Malachite Green ATPase assay. It counts as biochemical. The following applies: activity range. From the text:
The intrinsic ATPase activity of HSP90 may be measured using yeast HSP90 as a model system. The assay, based on the use of malachite green for the measurement of inorganic phosphate, was used to test the HSP90 inhibitory activity of some of the compounds of the Examples herein.
Malachite Green ATPase Assay
Chemicals are of the highest purity commercially available and all aqueous solutions are made up in AR water. Because of the need to minimise contamination with inorganic phosphate, precautions should be taken with solutions and apparatus used in the assays. Glassware and pH meters are rinsed with double distilled or deionised water before use and, wherever possible, plastic ware should be used. Gloves are worn for all procedures. • (1) Greiner 384-well (Greiner 781101) or Costar 384-well flat-bottomed polystyrene multiwell plates (VWR). • (2) Assay buffer of (a) 100mM Tris-HCI, pH 7.4, (b) 150mM KCI, (c) 6mM MgCl2. Stored at room temperature. • (3) 0.0812% (w/v) malachite green (M 9636, Sigma Aldrich Ltd., Poole, UK). Stored at room temperature. • (4) 2.32% (w/v) polyvinyl alcohol USP (P 1097, Sigma Aldrich Ltd, Poole, UK) in boiling water (see Comment 1), allowed to cool, and stored at room temperature. • (5) 5.72% (w/v) ammonium molybdate in 6 M hydrochloric acid. Stored at room temperature. • (6) 34% (w/v) sodium citrate. Stored at room temperature. • (7) 100mM ATP, disodium salt, special quality (47699, Sigma Aldrich). Stored at -20°C. • (8) E. coli expressed yeast HSP90 protein, purified >95% (see, e.g., Panaretou et al., 1998) and stored in 50uL aliquots at -80°C.
• 1. Dilute test compounds to 500µM in AR water (DMSO concentration will be 2.5%). Transfer 2.5µl of these compounds directly from the daughter plate to the assay plate, giving a final assay concentration of 100µM. […] Column 1 in the assay plate contains no compound, as a negative control. An additional row with no compound is also used as a background. • 2. Prepare ATP by diluting 100mM stock to 925µM with assay buffer, and aliquot 5µl of diluted ATP to each well including controls (final assay concentration 370µM). • 3. Add 5µl of buffer to background row. • 4. Dilute enzyme preparation to 1.05µM with assay buffer, and aliquot 5µl into each compound well and to the negative control column. • 5. Collect the reagents to the bottom of the well, cover plate with plate seal and incubate overnight at 37degC. • 6. First thing in the morning prepare the Malachite Green Reagent. Add 2parts of Malachite Green Solution, 1 part of Polyvinyl Alcohol Solution, 1 part of Ammonium Molybdate Solution, and 2 parts of AR water. • 7. Invert to mix, and leave for approximately 1 hour until the colour turns from brown to golden yellow. • 8. Add 40µl of Malachite Green Reagent to each well, allow 5 mins for colour to develop. • 9. Add 5µl of Sodium Citrate Reagent to each well (see comment 2) • 10. Re-cover with plate seal and shake on plate shaker for at least 15 mins. • 11. Measure Absorbance at 620nm using a suitable plate reader (e.g. Victor, Perkin Elmer Life Sciences, Milton Keynes, UK). Under these conditions, the control absorbance is 0.9 to 1.4, and the background is 0.2-0.35 giving a signal to noise ratio of -12. The Z' factor calculated from data obtained using these conditions is between 0.6 and 0.9.
• (1) The polyvinyl alcohol dissolves in boiling water with difficulty and stirring for 2-3 h is required. • (2) The time interval between addition of the malachite green reagent and the sodium citrate should be kept as short as possible in order to reduce the non-enzymatic hydrolysis of ATP. Once the sodium citrate is added, the colour is stable for up to 4 h at room temperature. • (3) Compounds can be added to the assay plates using a Biomek FX Robot (Beckman Coulter). […]
`Cc1noc(-c2ccc(O)cc2O)c1-c1ccc2c(c1)OCCO2` [Example 5] came in with an IC50 of more than 50 µM.

`Oc1ccc(Cl)cc1-c1oncc1-c1ccc2c(c1)OCCO2` [Example 6] returned an IC50 of more than 50 µM.

With `Oc1ccccc1-c1oncc1-c1ccc2c(c1)OCCO2` [Example 7], the IC50 was more than 50 µM.

The compound `COc1ccc(-c2cnoc2-c2cc(Cl)c(O)cc2O)cc1OC` [Example 8] showed an IC50 of more than 50 µM.

The compound `Cc1noc(-c2ccc(O)cc2O)c1-c1ccc(F)cc1` [Example 9] registered an IC50 of less than 50 µM.

Compound `Cc1noc(-c2cc(Cl)c(O)cc2O)c1-c1ccccc1` [Example 10] had an IC50 of less than 50 µM.

`CCc1cc(-c2oncc2-c2ccc(OC)c(OC)c2)c(O)cc1O` [Example 11] came in with an IC50 of less than 50 µM.

Regarding `COc1ccc(-c2c(C)noc2-c2cc(-c3cccnc3)c(O)cc2O)cc1` [Example 12], the IC50 was more than 50 µM.

Compound `Oc1cc(O)c(-c2oncc2-c2ccc(Br)cc2)cc1Cl` [Example 12a] registered an IC50 of less than 50 µM.

In turn, `Cc1cc(O)cc(O)c1-c1oncc1-c1csc(-c2ccccc2)n1` [Example 12c] returned an IC50 of less than 50 µM.

For the compound `Cc1cc(O)cc(O)c1-c1onc(C(F)(F)F)c1-c1cscn1` [Example 12d], the IC50 is less than 50 µM.

Compound `COc1ccc(-c2c(C)noc2-c2cc(C=O)c(O)cc2O)cc1` [Example 17] gave an IC50 of more than 50 µM.

In turn, `COc1ccc(-c2c(C)noc2-c2cc(C(=S)Nc3ccccc3)c(O)cc2O)cc1` [Example 18] yielded an IC50 of more than 50 µM.

Compound `COc1ccc(-c2c(C)noc2-c2cc(C(=O)Nc3ccccc3OC)c(O)cc2O)cc1` [Example 19] registered a half-inhibitory concentration (IC50) of less than 50 µM.

Regarding `COc1ccc(-c2c(C)noc2-c2cc(C(OC)c3ccccc3)c(O)cc2O)cc1` (stereo not drawn) [Example 20], the IC50 is less than 50 µM.

`CCCCCc1noc(-c2ccc(O)cc2O)c1-c1ccc(OC)cc1` [Example 21] came in with an IC50 of less than 50 µM.
